# Source: ChEMBL document CHEMBL3045014, “Synthesis and biological activity of novel anti-juvenile hormone agents” (J Pestic Sci, 2008)
# Calls of active or inactive are those of the source. The calls are words filed in the database; no cut-off is given here.
# Legend:
# Assay type in all cases: functional, organism-based
# [1] = tested on: Bombyx mori; assay: Induction of precocious metamorphosis in fourth-instar larvae of Bombyx mori
# [2] = tested on: Bombyx mori; assay: Induction of precocious metamorphosis in newly-molted fourth-instar larvae of Bombyx mori
# [3] = tested on: Bombyx mori; assay: Induction of precocious metamorphosis in 24-hr old 3rd-instar larvae of Bombyx mori
# [4] = tested on: Bombyx mori; assay: Induction of precocious metamorphosis in fourth-instar larvae of Bombyx mori in presence of JH agonist methoprene
# [5] = tested on: Bombyx mori; assay: Induction of precocious metamorphosis in Bombyx mori
# [6] = tested on: Bombyx mori; assay: Induction of precocious metamorphosis in newly-molted fourth-instar larvae of Bombyx mori at 1 ug
# [7] = tested on: Bombyx mori; assay: Induction of precocious metamorphosis in fourth-instar larvae of Bombyx mori in presence of 20-hydroxyecdysone
# [8] = tested on: Bombyx mori; assay: Induction of precocious metamorphosis in fourth-instar larvae of Bombyx mori at 0.1 ug
# [9] = tested on: Bombyx mori; assay: Induction of precocious metamorphosis in fourth-instar larvae of Bombyx mori at 40 ug
# [10] = tested on: Bombyx mori; assay: Induction of precocious metamorphosis in fourth-instar larvae of Bombyx mori at 10 ug
Structure (SMILES),Activity [2],Activity [5],Activity [6],other results
CCOC(=O)c1ccc(OCC(CC)OC(=O)C(C)(C)C)cc1 (stereo not given),inactive,–,–,Activity [1]: Active; Activity [3]: inactive
CCCCC(COc1ccc(C(=O)OCC)cc1)Cc1ccccc1 (racemic),Dose-dependent effect,Active,Active,Activity [1]: Active; Activity [4]: inactive; Activity [7]: Active; Activity [3]: inactive
CCCC[C@H](COc1ccc(C(=O)OCC)cc1)Cc1ccccc1,–,–,Active,Activity [8]: Active; Activity [9]: inactive; Activity [10]: inactive
CCOC(=O)c1ccc(OCC(Oc2ccc(C)nc2)C(C)(C)C)cc1 (stereo not given),–,Active,–,–
CCCCC(COc1ccc(C(=O)OCC)cc1)Oc1ccc(C)nc1 (stereo not given),Active,Active,–,–
CCCC[C@@H](COc1ccc(C(=O)OCC)cc1)Cc1ccccc1,–,–,Active,Activity [8]: Active; Activity [9]: inactive; Activity [10]: inactive
CCCCC(COc1ccc(C(=O)OCC)cc1)Oc1ccccc1 (stereo not given),Active,Active,–,–
CCCCCC(COc1ccc(C(=O)OCC)cc1)Cc1ccccc1 (stereo not given),–,Active,–,–
CCOC(=O)c1ccc(OCC(CC)Oc2ccc(C)nc2)cc1 (stereo not given),–,Active,–,–
